Tests used:
p110 γ (RAW264.7 cells) = p110 γ (RAW264.7 cells) (Mus musculus (Mouse), UniProt Q9JHG7); assay: PI3K-γ selective cellular assay: phospho-AKT in C5a stimulated RAW264.7 macrophages; format: cell-based; details: serum-starved RAW264.7 cells stimulated with C5a
Experimental: Certain compounds provided herein were tested in RAW 264.7 cell model using procedures as described above.

[1] = molecular target: human Class I PI3 kinase γ (Homo sapiens (Human), UniProt P48736); assay: PI3-Kinase Promega ADP-Glo Max assay, γ isoform; format: biochemical; details: 40 nM kinase, 3 mM ATP, 500 uM diC8-PtdInsP; read-out: Promega γ PI3K IC50
Experimental: Promega ADP-Glo Max assay kit (Cat. No. V7002) was utilized to determine IC50 values for α, β, δ and γ isoforms of human Class I PI3 kinases (Millipore). Samples of kinase (20 nM α or δ, 40 nM β or γ isoform) were incubated with compound for 15 minutes at room temperature in reaction buffer (15 mM HEPES pH 7.4, 20 mM NaCl, 1 mM EGTA, 0.02% Tween 20, 10 mM MgCl2, 0.2 mg/mL bovine-γ-globulins) followed by addition of ATP/diC8-PtdInsP mixture to give final concentrations of 3 mM ATP and 500 uM diC8-PtdInsP. Reactions were incubated at room temperature for 2 hours followed by addition of 25 uL of stop solution. After a 40-minute incubation at room temperature, 50 uL of Promega detection mix was added followed by incubation for 1 hour at room temperature. Plates were then read on Envision plate reader in luminescence mode. Data was converted to % inhibition using the following equation below:
[formula] where S is the sample luminescence, Pos is a positive control without added PI3K, Neg is the negative control without added compound. Data was then plotted as % inhibition vs compound concentration.
Certain compounds provided herein were tested in PI3-Kinase Promega Assay using procedures as described above to determine IC50 values for α, β, δ and/or γ isoforms.

p110 δ (RAJI cells) = p110 δ (RAJI cells) (Homo sapiens (Human), UniProt O00329); assay: PI3K-δ selective cellular assay: phospho-AKT in anti-human IgM stimulated RAJI cells; format: cell-based; details: serum-starved RAJI cells stimulated with anti-human IgM
Excerpt: A compound's ability in selectively inhibiting PI3K-δ can be assessed using RAJI cells, i.e., B lymphocyte cells derived from lymphoma patients. Briefly, serum-starved RAJI cells are stimulated with anti-human IgM, thereby causing signaling through the B-cell receptors, as described in, for example, He et al., Leukemia Research (2009) 33: 798-802. B-cell receptor signaling is important for the activation, differentiation, and survival of B cells and certain B-cell derived cancers. Reduction of phospho-AKT is indicative of compounds that may inhibit B-cell proliferation and function in certain diseases. […] Certain compounds provided herein were tested in RAJI cell model using procedures as described above.

[2] = molecular target: human Class I PI3 kinase α (Homo sapiens (Human), UniProt P42336); assay: PI3-Kinase Promega ADP-Glo Max assay, α isoform; format: biochemical; details: 20 nM kinase, 3 mM ATP, 500 uM diC8-PtdInsP; read-out: Promega α PI3K IC50
[3] = molecular target: human Class I PI3 kinase δ (Homo sapiens (Human), UniProt O00329); assay: PI3-Kinase Promega ADP-Glo Max assay, δ isoform; format: biochemical; details: 20 nM kinase, 3 mM ATP, 500 uM diC8-PtdInsP; read-out: Promega δ PI3K IC50
[4] = molecular target: human Class I PI3 kinase β (Homo sapiens (Human), UniProt P42338); assay: PI3-Kinase Promega ADP-Glo Max assay, β isoform; format: biochemical; details: 40 nM kinase, 3 mM ATP, 500 uM diC8-PtdInsP; read-out: Promega β PI3K IC50
human Class I PI3 kinase β, sequence (P42338 whole entry, looked up, canonical isoform): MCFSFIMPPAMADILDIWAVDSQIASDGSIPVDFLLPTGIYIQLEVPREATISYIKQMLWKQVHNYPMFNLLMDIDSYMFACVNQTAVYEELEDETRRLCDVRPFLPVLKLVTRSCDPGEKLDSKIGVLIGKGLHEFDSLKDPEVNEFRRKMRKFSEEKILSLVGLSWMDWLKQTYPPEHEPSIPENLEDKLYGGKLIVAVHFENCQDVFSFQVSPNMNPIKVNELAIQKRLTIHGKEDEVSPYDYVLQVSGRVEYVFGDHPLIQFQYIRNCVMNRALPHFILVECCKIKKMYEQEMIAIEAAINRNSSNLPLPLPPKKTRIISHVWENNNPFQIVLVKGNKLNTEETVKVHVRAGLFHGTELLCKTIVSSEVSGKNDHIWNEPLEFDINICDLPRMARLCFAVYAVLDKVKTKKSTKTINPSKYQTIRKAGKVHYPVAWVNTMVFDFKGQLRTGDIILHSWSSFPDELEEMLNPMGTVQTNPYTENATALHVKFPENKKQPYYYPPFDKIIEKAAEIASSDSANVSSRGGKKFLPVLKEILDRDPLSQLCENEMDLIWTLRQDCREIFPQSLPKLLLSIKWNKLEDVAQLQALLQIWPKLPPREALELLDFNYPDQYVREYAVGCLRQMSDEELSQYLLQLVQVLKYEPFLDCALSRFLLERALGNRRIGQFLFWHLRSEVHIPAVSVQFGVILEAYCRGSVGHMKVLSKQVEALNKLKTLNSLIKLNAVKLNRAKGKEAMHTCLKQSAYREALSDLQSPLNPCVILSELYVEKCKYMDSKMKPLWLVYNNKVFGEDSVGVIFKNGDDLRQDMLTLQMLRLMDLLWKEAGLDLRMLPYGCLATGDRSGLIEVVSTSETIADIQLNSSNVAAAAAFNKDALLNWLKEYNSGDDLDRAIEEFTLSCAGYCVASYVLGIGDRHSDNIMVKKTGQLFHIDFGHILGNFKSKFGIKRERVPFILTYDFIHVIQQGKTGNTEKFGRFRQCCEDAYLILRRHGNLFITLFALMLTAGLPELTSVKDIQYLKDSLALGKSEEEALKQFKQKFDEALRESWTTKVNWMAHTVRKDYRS
human Class I PI3 kinase β, sequence (P27986 whole entry partner, looked up, canonical isoform): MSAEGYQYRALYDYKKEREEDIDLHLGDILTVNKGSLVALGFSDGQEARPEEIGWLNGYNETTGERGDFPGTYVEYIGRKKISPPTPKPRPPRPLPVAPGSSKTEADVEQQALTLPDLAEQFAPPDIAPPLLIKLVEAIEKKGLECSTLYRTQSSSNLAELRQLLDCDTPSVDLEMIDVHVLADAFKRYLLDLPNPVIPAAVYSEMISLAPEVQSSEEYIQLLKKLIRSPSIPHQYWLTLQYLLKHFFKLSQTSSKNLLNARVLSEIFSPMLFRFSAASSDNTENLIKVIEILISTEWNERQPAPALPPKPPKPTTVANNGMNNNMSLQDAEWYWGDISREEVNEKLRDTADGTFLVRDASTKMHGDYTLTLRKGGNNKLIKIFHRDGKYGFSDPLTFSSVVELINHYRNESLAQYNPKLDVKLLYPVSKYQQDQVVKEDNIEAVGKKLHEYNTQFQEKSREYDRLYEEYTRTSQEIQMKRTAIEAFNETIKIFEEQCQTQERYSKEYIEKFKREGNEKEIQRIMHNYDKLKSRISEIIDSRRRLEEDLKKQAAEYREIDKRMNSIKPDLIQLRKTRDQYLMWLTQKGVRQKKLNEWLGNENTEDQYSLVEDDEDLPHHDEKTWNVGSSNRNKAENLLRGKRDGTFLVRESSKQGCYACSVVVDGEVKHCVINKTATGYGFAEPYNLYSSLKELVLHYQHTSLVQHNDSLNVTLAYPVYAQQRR

p110 γ (RAW264.7 cells), sequence (Q9JHG7 whole entry): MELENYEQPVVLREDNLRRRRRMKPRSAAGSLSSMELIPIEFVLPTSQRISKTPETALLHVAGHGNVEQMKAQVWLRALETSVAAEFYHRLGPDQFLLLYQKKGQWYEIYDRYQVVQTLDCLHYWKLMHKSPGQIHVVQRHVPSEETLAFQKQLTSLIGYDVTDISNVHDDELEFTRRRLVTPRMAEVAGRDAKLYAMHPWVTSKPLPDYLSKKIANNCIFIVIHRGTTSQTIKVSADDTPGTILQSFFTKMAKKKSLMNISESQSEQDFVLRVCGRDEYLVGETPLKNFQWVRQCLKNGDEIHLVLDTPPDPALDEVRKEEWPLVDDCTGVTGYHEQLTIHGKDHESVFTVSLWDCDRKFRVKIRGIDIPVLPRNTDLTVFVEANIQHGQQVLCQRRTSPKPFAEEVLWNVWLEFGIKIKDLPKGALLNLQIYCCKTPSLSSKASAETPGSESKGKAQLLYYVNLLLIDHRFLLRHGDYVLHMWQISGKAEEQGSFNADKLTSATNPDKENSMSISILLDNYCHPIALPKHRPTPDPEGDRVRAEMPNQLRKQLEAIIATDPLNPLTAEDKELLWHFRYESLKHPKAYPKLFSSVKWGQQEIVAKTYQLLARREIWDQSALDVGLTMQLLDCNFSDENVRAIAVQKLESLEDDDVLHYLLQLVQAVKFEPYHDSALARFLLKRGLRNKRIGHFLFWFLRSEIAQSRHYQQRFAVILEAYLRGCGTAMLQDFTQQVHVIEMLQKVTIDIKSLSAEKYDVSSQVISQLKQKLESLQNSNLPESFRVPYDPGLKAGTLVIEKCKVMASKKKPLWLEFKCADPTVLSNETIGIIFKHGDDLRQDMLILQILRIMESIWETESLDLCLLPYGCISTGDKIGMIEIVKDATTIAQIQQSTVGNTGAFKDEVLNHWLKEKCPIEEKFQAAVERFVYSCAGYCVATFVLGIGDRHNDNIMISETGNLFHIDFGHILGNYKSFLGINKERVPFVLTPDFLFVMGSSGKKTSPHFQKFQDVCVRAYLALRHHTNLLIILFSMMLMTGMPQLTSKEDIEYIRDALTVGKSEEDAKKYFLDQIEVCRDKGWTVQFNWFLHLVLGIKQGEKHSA
human Class I PI3 kinase α, sequence (P42336 whole entry, canonical isoform): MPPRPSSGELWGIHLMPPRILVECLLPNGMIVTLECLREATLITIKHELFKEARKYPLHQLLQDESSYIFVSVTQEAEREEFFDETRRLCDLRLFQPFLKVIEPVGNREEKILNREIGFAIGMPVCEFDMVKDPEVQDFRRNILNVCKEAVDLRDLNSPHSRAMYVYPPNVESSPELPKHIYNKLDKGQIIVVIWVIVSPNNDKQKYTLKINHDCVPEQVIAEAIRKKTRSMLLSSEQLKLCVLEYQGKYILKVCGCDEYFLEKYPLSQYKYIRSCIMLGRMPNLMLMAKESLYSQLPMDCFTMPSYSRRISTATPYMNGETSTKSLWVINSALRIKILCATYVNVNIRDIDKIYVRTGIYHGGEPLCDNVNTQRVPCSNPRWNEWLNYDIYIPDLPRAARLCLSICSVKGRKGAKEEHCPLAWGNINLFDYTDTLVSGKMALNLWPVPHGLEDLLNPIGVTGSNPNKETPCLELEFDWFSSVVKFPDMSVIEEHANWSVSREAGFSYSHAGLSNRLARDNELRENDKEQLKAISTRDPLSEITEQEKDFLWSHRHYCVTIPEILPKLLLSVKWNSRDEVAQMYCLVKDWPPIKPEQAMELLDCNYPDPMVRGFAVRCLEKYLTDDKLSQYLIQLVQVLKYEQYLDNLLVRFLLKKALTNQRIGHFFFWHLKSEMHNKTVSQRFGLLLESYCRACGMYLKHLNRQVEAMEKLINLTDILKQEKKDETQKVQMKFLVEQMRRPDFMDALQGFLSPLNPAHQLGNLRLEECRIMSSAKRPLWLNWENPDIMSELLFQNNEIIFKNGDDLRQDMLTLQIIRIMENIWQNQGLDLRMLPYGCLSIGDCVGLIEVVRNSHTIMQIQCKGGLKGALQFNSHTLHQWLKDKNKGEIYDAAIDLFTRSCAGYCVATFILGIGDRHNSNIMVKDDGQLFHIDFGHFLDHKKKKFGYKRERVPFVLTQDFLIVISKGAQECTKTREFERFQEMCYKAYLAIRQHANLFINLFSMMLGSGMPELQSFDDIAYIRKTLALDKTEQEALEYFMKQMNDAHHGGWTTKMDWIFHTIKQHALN
human Class I PI3 kinase α, sequence (P27986 whole entry partner, canonical isoform): as the sequence (P27986 whole entry partner, looked up, canonical isoform) above
human Class I PI3 kinase γ, sequence (P48736 whole entry, canonical isoform): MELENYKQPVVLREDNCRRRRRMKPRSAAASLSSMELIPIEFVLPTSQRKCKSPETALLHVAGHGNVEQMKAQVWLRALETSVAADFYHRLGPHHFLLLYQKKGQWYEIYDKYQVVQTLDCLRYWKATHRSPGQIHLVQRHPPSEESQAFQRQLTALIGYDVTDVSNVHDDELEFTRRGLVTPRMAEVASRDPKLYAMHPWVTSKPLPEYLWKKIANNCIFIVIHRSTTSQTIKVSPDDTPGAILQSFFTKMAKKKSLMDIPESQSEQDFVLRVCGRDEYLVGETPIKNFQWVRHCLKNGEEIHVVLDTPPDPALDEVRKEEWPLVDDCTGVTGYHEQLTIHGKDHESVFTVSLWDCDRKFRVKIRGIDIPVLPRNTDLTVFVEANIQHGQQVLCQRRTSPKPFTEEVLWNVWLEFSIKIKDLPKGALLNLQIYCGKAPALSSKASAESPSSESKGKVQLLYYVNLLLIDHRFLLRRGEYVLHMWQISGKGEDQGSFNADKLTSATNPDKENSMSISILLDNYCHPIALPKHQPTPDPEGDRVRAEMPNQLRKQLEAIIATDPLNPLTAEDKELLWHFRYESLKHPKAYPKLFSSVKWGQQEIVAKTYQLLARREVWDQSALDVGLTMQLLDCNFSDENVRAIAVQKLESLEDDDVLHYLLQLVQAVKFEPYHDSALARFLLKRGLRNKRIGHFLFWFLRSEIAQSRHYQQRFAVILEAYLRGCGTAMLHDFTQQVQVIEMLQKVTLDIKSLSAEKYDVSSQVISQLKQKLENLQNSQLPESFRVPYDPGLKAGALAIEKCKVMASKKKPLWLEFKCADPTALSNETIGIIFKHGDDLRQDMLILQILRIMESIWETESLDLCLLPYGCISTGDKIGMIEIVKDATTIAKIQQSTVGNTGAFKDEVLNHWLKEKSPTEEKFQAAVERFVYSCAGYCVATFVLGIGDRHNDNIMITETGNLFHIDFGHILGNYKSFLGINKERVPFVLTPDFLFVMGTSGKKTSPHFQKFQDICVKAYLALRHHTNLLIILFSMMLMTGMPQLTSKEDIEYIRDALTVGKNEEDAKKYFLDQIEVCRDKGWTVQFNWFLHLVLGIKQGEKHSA

IC50 (p110 γ (RAW264.7 cells))	IC50 [1]	IC50 (p110 δ (RAJI cells))	IC50 [2]	IC50 [3]	IC50 [4]	SMILES
0.01 to 0.1 µM	0.5 to 1 µM	0.01 to 0.1 µM	1 to 10 µM	0.5 to 1 µM	1 to 10 µM	C[C@H](NC(=O)c1nccnc1N)c1cc2cccc(C(F)(F)F)c2c(=O)n1-c1ccccc1 [Compound 52]
0.1 to 0.5 µM	0.01 to 0.1 µM	0.001 to 0.01 µM	0.5 to 1 µM	0.1 to 0.5 µM	0.01 to 0.1 µM	C[C@H](NC(=O)c1c(N)nn2cccnc12)c1cc2cccc(Cl)c2c(=O)n1CCCNS(C)(=O)=O [Compound 53]
0.01 to 0.1 µM	0.01 to 0.1 µM	0.01 to 0.1 µM	1 to 10 µM	0.1 to 0.5 µM	0.1 to 0.5 µM	CNS(=O)(=O)CCn1c([C@H](C)NC(=O)c2c(N)nn3cccnc23)cc2cccc(Cl)c2c1=O [Compound 54]
0.1 to 0.5 µM	0.1 to 0.5 µM	0.01 to 0.1 µM	1 to 10 µM	1 to 10 µM	0.1 to 0.5 µM	C[C@H](NC(=O)c1c(N)nn2cccnc12)c1cc2cccc(Cl)c2c(=O)n1CCc1nnnn1C [Compound 55]
0.1 to 0.5 µM	1 to 10 µM	0.01 to 0.1 µM	1 to 10 µM	1 to 10 µM	0.5 to 1 µM	C[C@H](NC(=O)c1c(N)nn2cccnc12)c1cc2cccc(Cl)c2c(=O)n1CCc1nnn(C)n1 [Compound 56]
0.1 to 0.5 µM	0.1 to 0.5 µM	0.1 to 0.5 µM	1 to 10 µM	1 to 10 µM	0.1 to 0.5 µM	C[C@H](NC(=O)c1c(N)nn2cccnc12)c1cc2cccc(Cl)c2c(=O)n1CCCS(C)(=O)=O [Compound 57]
0.001 to 0.01 µM	0.01 to 0.1 µM	0.01 to 0.1 µM	0.5 to 1 µM	0.1 to 0.5 µM	0.5 to 1 µM	C[C@H](NC(=O)c1c(N)nn2cccnc12)c1cc2cccc(Cl)c2c(=O)n1CCS(=O)(=O)N(C)C [Compound 58]
0.1 to 0.5 µM	0.01 to 0.1 µM	0.01 to 0.1 µM	1 to 10 µM	0.1 to 0.5 µM	0.1 to 0.5 µM	CCS(=O)(=O)NCCn1c([C@H](C)NC(=O)c2c(N)nn3cccnc23)cc2cccc(Cl)c2c1=O [Compound 61]
0.01 to 0.1 µM	0.5 to 1 µM	0.1 to 0.5 µM	1 to 10 µM	1 to 10 µM	0.5 to 1 µM	C#CCCn1c([C@H](C)NC(=O)c2c(N)nn3cccnc23)cc2cccc(Cl)c2c1=O [Compound 62]
0.5 to 1 µM	0.5 to 1 µM	0.1 to 0.5 µM	1 to 10 µM	1 to 10 µM	0.1 to 0.5 µM	C[C@H](NC(=O)c1c(N)nn2cccnc12)c1cc2cccc(Cl)c2c(=O)n1CCc1cnn[nH]1 [Compound 63]
0.1 to 0.5 µM	1 to 10 µM	0.1 to 0.5 µM	1 to 10 µM	1 to 10 µM	1 to 10 µM	C[C@H](NC(=O)c1c(N)nn2cccnc12)c1cc2cccc(Cl)c2c(=O)n1CCc1noc(C(C)(C)C)n1 [Compound 64]
0.01 to 0.1 µM	1 to 10 µM	0.1 to 0.5 µM	1 to 10 µM	1 to 10 µM	1 to 10 µM	CC(C)C(=O)Cc1cccc2cc([C@H](C)NC(=O)c3c(N)nn4cccnc34)n(-c3ccccc3)c(=O)c12 [Compound 65]
0.001 to 0.01 µM	0.5 to 1 µM	0.01 to 0.1 µM				C[C@H](NC(=O)c1c(N)nn2cccnc12)c1cc2cccc(CCc3cnn(C)c3)c2c(=O)n1-c1ccccc1 [Compound 66]
	1 to 10 µM		1 to 10 µM	1 to 10 µM	1 to 10 µM	C[C@H](NC(=O)c1c(N)nn2cccnc12)c1nc2ccc(Cl)cc2c(=O)n1-c1ccccc1 [Compound 88]
	1 to 10 µM		1 to 10 µM	1 to 10 µM	1 to 10 µM	C[C@H](NC(=O)c1nccnc1N)c1oc2ccc(F)cc2c(=O)c1-c1ccccc1 [Compound 97]
